Laboratory results: US9266883B2, “Ring-fused bicyclic pyridyl derivatives as FGFR4 inhibitors” (Novartis AG, priority 2013, dated 2016)
Several values for one entry are separate records, joined by “and”; a condition that tells them apart may be missing. Identical values can stand only once. Counter-ions that a name gives are not always drawn. Like-named read-outs stand apart in the source and are kept apart here.

Legend:
[1] = biological target: FGFR4 (GST-FGFR4(388-802)) (Homo sapiens (Human), UniProt P22455); assay: In-vitro biochemical kinase assay for FGFR4 (Caliper microfluidic mobility shift)
Chain of FGFR4 (GST-FGFR4(388-802)) (P22455 388-802): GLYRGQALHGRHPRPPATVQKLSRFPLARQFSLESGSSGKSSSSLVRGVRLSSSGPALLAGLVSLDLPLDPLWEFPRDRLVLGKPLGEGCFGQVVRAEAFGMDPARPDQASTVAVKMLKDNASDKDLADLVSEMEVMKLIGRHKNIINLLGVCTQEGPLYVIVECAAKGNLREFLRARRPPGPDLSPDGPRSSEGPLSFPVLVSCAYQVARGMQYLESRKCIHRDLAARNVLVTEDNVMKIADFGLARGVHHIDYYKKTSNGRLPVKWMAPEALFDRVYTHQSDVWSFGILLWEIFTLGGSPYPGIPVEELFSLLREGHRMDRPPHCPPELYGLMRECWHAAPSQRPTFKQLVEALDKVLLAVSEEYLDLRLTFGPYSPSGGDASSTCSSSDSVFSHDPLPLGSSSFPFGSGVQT

Tel-FGFR4 = Tel-FGFR4 (Homo sapiens (Human), UniProt P22455); assay: In vitro cellular kinase assay for FGFR4 (BaF3-Tel-FGFR4 cells, MSD capture ELISA of tyrosine phosphorylation); format: cell-based
Chain of Tel-FGFR4 (P22455 other isoform, or with tags, fused parts or gaps): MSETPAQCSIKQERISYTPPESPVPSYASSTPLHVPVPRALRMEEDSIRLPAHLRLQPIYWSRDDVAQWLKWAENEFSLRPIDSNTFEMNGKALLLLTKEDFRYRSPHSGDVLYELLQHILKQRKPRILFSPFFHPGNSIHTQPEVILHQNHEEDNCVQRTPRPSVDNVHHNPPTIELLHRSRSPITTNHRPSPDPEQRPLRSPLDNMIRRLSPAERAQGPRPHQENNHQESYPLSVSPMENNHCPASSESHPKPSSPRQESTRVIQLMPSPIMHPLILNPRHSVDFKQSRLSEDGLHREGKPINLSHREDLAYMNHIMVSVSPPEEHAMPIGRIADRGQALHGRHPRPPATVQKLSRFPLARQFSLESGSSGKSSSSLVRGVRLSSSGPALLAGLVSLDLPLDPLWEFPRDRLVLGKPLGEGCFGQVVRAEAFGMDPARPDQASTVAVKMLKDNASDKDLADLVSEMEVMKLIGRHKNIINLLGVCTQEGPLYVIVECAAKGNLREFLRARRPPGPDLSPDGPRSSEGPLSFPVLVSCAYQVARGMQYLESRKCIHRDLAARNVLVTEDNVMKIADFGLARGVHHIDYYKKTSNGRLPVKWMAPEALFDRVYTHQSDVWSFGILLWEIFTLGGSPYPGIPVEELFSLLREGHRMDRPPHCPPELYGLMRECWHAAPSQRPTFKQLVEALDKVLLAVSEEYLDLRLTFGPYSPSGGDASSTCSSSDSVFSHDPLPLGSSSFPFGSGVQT

[2] = biochemical FGFR4 assay, read-out: Biochemical IC50
[3] = Cellular BaF3 FGFR4 assay, read-out: Cellular IC50
[4] = read-out: Biochemical FGFR4 IC50
[5] = BaF3-Tel-FGFR4 cells, 1 hour incubation, read-out: Cellular BaF3 FGFR4 IC50

SMILES	IC50 [1, 2] [nM]	IC50 (Tel-FGFR4; [3]) [nM]	IC50 [1, 4] [nM]	IC50 (Tel-FGFR4; [5])	IC50 (Tel-FGFR4; measured and considered as outlier values, not included in the table or list, read-out: IC50 in the cellular BaF3 FGFR4 assay, outlier values) [nM]
COC[C@H](C)Nc1cc(NC(=O)N2CCCc3cc(CN(C)C(C)=O)c(C=O)nc32)ncc1C#N [(S)-N-(5-cyano-4-((1-methoxypropan-2-yl)amino)pyridin-2-yl)-7-formyl-6-((N-methylacetamido)methyl)-3,4-dihydro-1,8-naphthyridine-1(2H)-carboxamide]	1	4.2			
COC[C@H](C)Oc1cc(NC(=O)N2CCCc3cc(CN4CCCC4=O)c(C=O)nc32)ncc1C#N [(S)-N-(5-cyano-4-((1-methoxypropan-2-yl)oxy)pyridin-2-yl)-7-formyl-6-((2-oxopyrrolidin-1-yl)methyl)-3,4-dihydro-1,8-naphthyridine-1(2H)-carboxamide]	4.6	7.6			
COC[C@H](C)Oc1cc(NC(=O)N2CCCc3cc(CN(C)C(C)=O)c(C=O)nc32)ncc1C#N [(S)-N-(5-cyano-4-((1-methoxypropan-2-yl)oxy)pyridin-2-yl)-7-formyl-6-((N-methylacetamido)methyl)-3,4-dihydro-1,8-naphthyridine-1(2H)-carboxamide]	4	12.1			
COCCNc1cc(NC(=O)N2CCCc3cc(CN4C[C@@H](N(C)C)CC4=O)c(C=O)nc32)ncc1C#N [(S)-N-(5-cyano-4-((2-methoxyethyl)amino)pyridin-2-yl)-6-((4-(dimethylamino)-2-oxopyrrolidin-1-yl)methyl)-7-formyl-3,4-dihydro-1,8-naphthyridine-1(2H)-carboxamide]	0.6	5.8			
CC(C)Oc1cc(NC(=O)N2CCCc3cc(CN4C[C@@H](N(C)C)CC4=O)c(C=O)nc32)ncc1C#N [(S)-N-(5-cyano-4-isopropoxypyridin-2-yl)-6-((4-(dimethylamino)-2-oxopyrrolidin-1-yl)methyl)-7-formyl-3,4-dihydro-1,8-naphthyridine-1(2H)-carboxamide]	0.2	11.1			
N#Cc1cnc(NC(=O)N2CCCc3cc(CN4CC[C@H](O)C4=O)c(C=O)nc32)cc1OCC(F)F [(S)N-(5-cyano-4-(2,2-difluoroethoxyl)pyridin-2-yl)-7-formyl-6-((3-hydroxy-2-oxopyrrolidin-1-yl)methyl)-3,4-dihydro-1,8-naphthyridine-1(2H)-carboxamide]	4.8	13.5			
O=Cc1ccc2c(n1)N(C(=O)Nc1cc(Cl)c(Cl)cn1)CCC2 [Example 2, N-(4,5-dichloropyridin-2-yl)-7-formyl-3,4-dihydro-1,8-naphthyridine-1(2H)-carboxamide]			30	> 3000 nM	
N#Cc1cnc(NC(=O)N2CCCc3ccc(C=O)nc32)cc1C#N [Example 17, N-(4,5-dicyanopyridin-2-yl)-7-formyl-3,4-dihydro-1,8-naphthyridine-1(2H)-carboxamide]			40	914 nM	
N#Cc1cnc(NC(=O)N2CCCc3ccc(C=O)nc32)cc1Cl [Example 24, N-(4-chloro-5-cyanopyridin-2-yl)-7-formyl-3,4-dihydro-1,8-naphthyridine-1(2H)-carboxamide]			24	> 3000 nM	
N#Cc1cnc(NC(=O)N2CCCc3ccc(C=O)nc32)cc1C1=CCOCC1 [Example 30, N-(5-cyano-4-(3,6-dihydro-2H-pyran-4-yl)pyridin-2-yl)-7-formyl-3,4-dihydro-1,8-naphthyridine-1(2H)-carboxamide]			5.5	428 nM	
CN1CCC2(CCN(c3cc(NC(=O)N4CCCc5cc(CO)c(C=O)nc54)ncc3C#N)CC2)C1 [Example 45, N-(5-cyano-4-(2-methyl-2,8-diazaspiro[4.5]decan-8-yl)pyridin-2-yl)-7-formyl-6-(hydroxymethyl)-3,4-dihydro-1,8-naphthyridine-1(2H)-carboxamide]			21	67 nM	
N#Cc1cnc(NC(=O)N2CCCc3cc(CO)c(C=O)nc32)cc1OC1CCOCC1 [Example 53, N-(5-cyano-4-((tetrahydro-2H-pyran-4-yl)oxy)pyridin-2-yl)-7-formyl-6-(hydroxymethyl)-3,4-dihydro-1,8-naphthyridine-1(2H)-carboxamide]			2.9	36 nM	
COC[C@H](C)Oc1nc(NC(=O)N2CCCc3cc(CO)c(C=O)nc32)ncc1Cl [Example 58, (S)-N-(5-chloro-4-((1-methoxypropan-2-yl)oxy)pyrimidin-2-yl)-7-formyl-6-(hydroxymethyl)-3,4-dihydro-1,8-naphthyridine-1(2H)-carboxamide]			160	898 nM	
COC[C@@H](C)Oc1nc(NC(=O)N2CCCc3cc(CO)c(C=O)nc32)ncc1Cl [Example 59, (R)-N-(5-chloro-4-((1-methoxypropan-2-yl)oxy)pyrimidin-2-yl)-7-formyl-6-(hydroxymethyl)-3,4-dihydro-1,8-naphthyridine-1(2H)-carboxamide]			48	105 nM	
O=Cc1nc2c(cc1CO)CCCN2C(=O)Nc1ncc(Cl)c(O[C@H]2CCOC2)n1 [Example 69, (S)-N-(5-chloro-4-((tetrahydrofuran-3-yl)oxy)pyrimidin-2-yl)-7-formyl-6-(hydroxymethyl)-3,4-dihydro-1,8-naphthyridine-1(2H)-carboxamide]			54	95 nM	
N#Cc1cnc(NC(=O)N2CCCc3cc(CO)c(C=O)nc32)nc1O[C@H]1CCOC1 [Example 70, (S)-N-(5-cyano-4-((tetrahydrofuran-3-yl)oxy)pyrimidin-2-yl)-7-formyl-6-(hydroxymethyl)-3,4-dihydro-1,8-naphthyridine-1(2H)-carboxamide]			27	43 nM	
O=Cc1nc2c(cc1CO)CCCN2C(=O)Nc1cc(O[C@H]2CCOC2)ccn1 [Example 71, (S)-7-formyl-6-(hydroxymethyl)-N-(4-((tetrahydrofuran-3-yl)oxy)pyridin-2-yl)-3,4-dihydro-1,8-naphthyridine-1(2H)-carboxamide]			810	1570 nM	
O=Cc1nc2c(cc1CO)CCCN2C(=O)Nc1cc(O[C@H]2CCOC2)c(Cl)cn1 [Example 72, (S)-N-(5-chloro-4-((tetrahydrofuran-3-yl)oxy)pyridin-2-yl)-7-formyl-6-(hydroxymethyl)-3,4-dihydro-1,8-naphthyridine-1(2H)-carboxamide]			21	57.5 nM	
O=Cc1nc2c(cc1CO)CCCN2C(=O)Nc1ccc(F)cn1 [Example 76, N-(5-fluoropyridin-2-yl)-7-formyl-6-(hydroxymethyl)-3,4-dihydro-1,8-naphthyridine-1(2H)-carboxamide]			620	1610 nM and > 3000 nM	
CC(C)(O)CNc1cc(NC(=O)N2CCCc3cc(CO)c(C=O)nc32)ncc1C#N [Example 86, N-(5-cyano-4-((2-hydroxy-2-methylpropyl)amino)pyridin-2-yl)-7-formyl-6-(hydroxymethyl)-3,4-dihydro-1,8-naphthyridine-1(2H)-carboxamide]			4.9	12 nM	
N#Cc1cnc(NC(=O)N2CCCc3cc(CO)c(C=O)nc32)cc1OCC(F)(F)F [Example 89, N-(5-cyano-4-(2,2,2-trifluoroethoxyl)pyridin-2-yl)-7-formyl-6-(hydroxymethyl)-3,4-dihydro-1,8-naphthyridine-1(2H)-carboxamide]			8.9	14.5 nM	
CC(C)Oc1cc(NC(=O)N2CCCc3cc(CN4CCN(C)CC4=O)c(C=O)nc32)ncc1C#N [Example 92, N-(5-cyano-4-isopropoxypyridin-2-yl)-7-formyl-6-((4-methyl-2-oxopiperazin-1-yl)methyl)-3,4-dihydro-1,8-naphthyridine-1(2H)-carboxamide]			0.7	3.3 nM	
CN1CCN(Cc2cc3c(nc2C=O)N(C(=O)Nc2cc(OCCO)c(C#N)cn2)CCC3)C(=O)C1 [Example 199, N-(5-cyano-4-(2-hydroxyethoxyl)pyridin-2-yl)-7-formyl-6-((4-methyl-2-oxopiperazin-1-yl)methyl)-3,4-dihydro-1,8-naphthyridine-1(2H)-carboxamide]			2.3	19.3 nM	
COCCNc1cc(NC(=O)N2CCCc3cc(CN4CC[N+](C)([O-])CC4=O)c(C=O)nc32)ncc1C#N (stereo not drawn) [Example 222, 4-((8-((5-cyano-4-((2-methoxyethyl)amino)pyridin-2-yl)carbamoyl)-2-formyl-5,6,7,8-tetrahydro-1,8-naphthyridin-3-yl)methyl)-1-methyl-3-oxopiperazine 1-oxide]			< 4.8	41.3 nM	
CN1CCN(Cc2cc3c(nc2C=O)N(C(=O)Nc2cc(NCCOS(=O)(=O)O)c(C#N)cn2)CCC3)C(=O)C1 [Example 236, 2-((5-cyano-2-(7-formyl-6-((4-methyl-2-oxopiperazin-1-yl)methyl)-1,2,3,4-tetrahydro-1,8-naphthyridine-1-carboxamido)pyridin-4-yl)amino)ethyl hydrogen sulfate]			8.2	1130 nM	> 3000
CC(=O)N(C)Cc1cc2c(nc1C=O)N(C(=O)Nc1cc(SC(C)C)c(C#N)cn1)CCC2 [Example 240, N-(5-cyano-4-(isopropylthio)pyridin-2-yl)-7-formyl-6-((N-methylacetamido)methyl)-3,4-dihydro-1,8-naphthyridine-1(2H)-carboxamide]			< 0.1	11.1 nM	
COCCNc1cc(NC(=O)N2CCCc3cc(-c4cn(C)nc4C)c(C=O)nc32)ncc1C#N [Example 250, N-(5-cyano-4-((2-methoxyethyl)amino)pyridin-2-yl)-6-(1,3-dimethyl-1H-pyrazol-4-yl)-7-formyl-3,4-dihydro-1,8-naphthyridine-1(2H)-carboxamide]			6.7	14.5 nM	
COCCNc1cc(NC(=O)N2CCCc3cc(C4CCN(CC(F)F)CC4)c(C=O)nc32)ncc1C#N [Example 267, N-(5-cyano-4-((2-methoxyethyl)amino)pyridin-2-yl)-6-(1-(2,2-difluoroethyl)piperidin-4-yl)-7-formyl-3,4-dihydro-1,8-naphthyridine-1(2H)-carboxamide]			1.2	16.7 nM	
